# Experiments:
# [1] = test system: Rev-mediated RRE export (RRE: Rev: Crm1 interactions); assay: Nucleocytoplasmic export assay (CAT assay) based on plasmid pDM128 in HeLa cells; assay type: cell-based, HIV-1; details: HeLa cells co-transfected with pDM128 and pSV2-Rev
# Procedure: Lastly, multitarget-binding and inhibitory capabilities of hetero-SPCHs were examined. To evaluate the inhibition of Rev-mediated RRE export, a nucleocytoplasmic export assay based on plasmid pDM128 expressing RRE (see FIG. 23) was performed.
# Referring to FIG. 24, as shown in a chloramphenicol acetyltransferase (CAT) assay (lane 3), co-transfection of pDM128 with pSV2-Rev (Rev-expressing plasmid) in HeLa cells enables an effective nucleocytoplasmic export of RRE RNA. In contrast, negligible CAT activity was observed when the cells were co-transfected with pBluescript KS(+) (negative control plasmid) (lane 2).
# In addition, to confirm whether nucleocytoplasmic export mediated by RRE: Rev: Crm1 interactions could be inhibited by peptide-CNT hybrids, the cells were treated with hetero-(A&N)-SPCHs.
# HeLa cells were incubated under 5% CO2 at 37° C. in DMEM supplemented with 10% FBS and 1% pen/strep. 4×10^4 of the incubated cells were distributed into a 48-well plate, and then incubated under 5% CO2 at 37° C. overnight. Subsequently, the resulting cells were washed with DPBS, and then a plasmid (total 250 ng; pDM128, pBluescript II KS (+), pSV2-Rev) complexed with 0.7 μL of a jetPEI DNA transfection reagent was added to each well. […]
# The samples were normalized with the concentrations of proteins measured by a BCA assay (BCA protein assay kit; Pierce, USA). […]
# [2] = test system: cyc-ARM peptide on SWCNT (homo-ARM-SPCH) (HIV-1 (Rev ARM, synthetic)); assay: competition; details: hybrid concentration for complete exchange of 6 uM Rev from 100 nM RRE by EMSA; stated about 10,000 times stronger RRE binding than Rev
Compound,concentration required to completely inhibit the RRE export [1],binding [2]
"CCC(=C/[C@H](C)C/C=C/C(C)=C/[C@@H](C)C(=O)[C@@H](C)[C@H](O)[C@@H](C)C/C(C)=C/C(=O)O)/C=C/[C@@H]1OC(=O)C=C[C@@H]1C [LMB, leptomycin B]",100 nM,–
GGGCGAAUUGGAGCUCGCUAUGUUCCUUGGGUUCUUGGGAGCAGCAGGAAGCACUAUGGGCGCAGUGUCAUUGACGCUGACGGUACAGGCCAGACAAUUAUUGUCUGGUAUAGUGCAACAGCAGAACAAUUUGCUGAGGGCUAUUGAGGCGCAACAACAUCUGUUGCAACUCACAGUCUGGGGCAUCAAGCAGCUCCAGGCAAGAGUCCUGGCUGUGGAAAGAUACCUAAGGGAUCAACAGCUCCUAGGGAUG [full-length RRE RNA transcript (253 nt)],–,600 pM

# — patent US10669313B2, “Multitarget-directed bio-inorganic hybrid structure” (INDUSTRY-ACADEMIC COOPERATION FOUNDATION, YONSEI UNIVERSITY, priority 2016, dated 2020)
